Laboratory results: US12258338B2, “Modulators of the integrated stress response pathway” (EVOTEC INTERNATIONAL GMBH, priority 2019, dated 2025)
≈ marks a conversion by molar mass, not a printed value. Like-named read-outs stand apart in the source and are kept apart here.

How the values were obtained:
[1] = target: T1, human ERG potassium channel (hERG) (Homo sapiens, UniProt Q12809); experiment: hERG channel tail current recording using in vitro Rapid ICE (automated patch-clamp, QPatch HTX); type: cell-based; conditions: Table 26
T1 construct: expressed in transfected cells; host or cells: HEK293, stably transfected, tetracycline-inducible promoter
Method: Protocol—Measure of the Effect on hERG Channel by Tail Current Recording Using In Vitro Rapid ICE
The potency of the example compounds in inhibiting human ERG potassium channel (hERG) tail current was assessed in a recombinant HEK293 cell line stably transfected with hERG cDNA under an inducible promoter, using Rapid ICE (rapid ion channel electrophysiology) assay. Rapid ICE is an automated patch-clamp assay utilizing the QPatch HTX system (Sophion Bioscience A/S). Briefly, inducible HEK hERG cells were cultivated in minimum essential medium supplemented with 10% FBS, 1% non-essential amino acids, 1% sodium pyruvate, 2 mM 1-glutamine, 15 μg/mL blasticidin, and 100 μg/mL hygromycin. hERG channel expression induction was obtained by adding 10 μg/mL tetracycline for 24, 48, or 72 h before recordings.
On the day of the experiment, cells were detached with TrypLE and prepared to be loaded on the instrument. Cells were resuspended in 7 mL of Serum-Free Media containing 25 mM Hepes and soybean trypsin inhibitor and immediately placed in the cell storage tank of the machine. The composition of the extracellular buffer was (mM): NaCl 137, KCl 4, CaCl2 1.8, MgCl2 1.0, d-glucose 10, N-2-hydroxyethylpiperazine-N′-2-ethanesulfonic acid (HEPES) 10, pH 7.4 with 1 M NaOH. The composition of the intracellular solution was (mM): KCl 130, MgCl2 1.0, ethylene glycol-bis(β-aminoethyl ether)-N,N,N′,N′-tetraacetic acid (EGTA) 5, MgATP 5, HEPES 10, pH 7.2 with 1 M KOH. The voltage protocol included the following steps: step from −80 to −50 mV for 200 ms, +20 mV for 4.8 s, step to −50 mV for 5 s, then step to the holding potential of −80 mV. Compounds were dissolved in DMSO and diluted in extracellular buffer to achieve final test concentrations (0.3, 3, and 30 μM) in 0.3% DMSO. The voltage protocol was run and recorded continuously during the experiment. The vehicle, corresponding to 0.3% DMSO in extracellular buffer was then applied for 3 min, followed by the test substance in triplicate. The standard combined exposure time was 5 min. The average of tail current amplitude values recorded from four sequential voltage pulses was used to calculate for each cell the effect of the test substance by calculating the residual current (% control) compared with vehicle pretreatment. Data were reported as % inhibition for each concentration tested, and IC50 values were estimated using QPatch software. At least two cells were tested, and even more if results diverged.

[2] = system: ATF4; experiment: HEK-ATF4 High Content Imaging assay (prevention of Tunicamycin induced ISR; ATF4 signal ratio between nucleus and cytoplasm); type: cell-based; conditions: Homo sapiens; Wild-type HEK293 cells, Tunicamycin induced ISR, 6 h; read-out: IIEK-ATF4 Activity
Method: HEK-ATF4 High Content Imaging Assay
Example compounds were tested in the HEK-ATF4 High Content Imaging assay to assess their pharmacological potency to prevent Tunicamycin induced ISR. Wild-type HEK293 cells were plated in 384-well imaging assay plates at a density of 12,000 cells per well in growth medium (containing DMEM/F12, 10% FBS, 2 mM L-Glutamine, 100 U/mL Penicillin-100 μg/mL Streptomycin) and incubated at 37° C., 5% CO2. 24 h later, the medium was changed to 50 μL assay medium per well (DMEM/F12, 0.3% FBS, 2 mM L-Glutamine, 100 U/mL Penicillin-100 μg/mL Streptomycin). Example compounds were serially diluted in DMSO, spotted into intermediate plates and prediluted with assay medium containing 3.3 μM Tunicamycin to give an 11-fold excess of final assay concentration. In addition to the example compound testing area, the plates also contained multiples of control wells for assay normalization purposes, wells containing Tunicamycin but no example compounds (High control), as well as wells containing neither example compound nor Tunicamycin (Low control). The assay was started by transferring 5 μL from the intermediate plate into the assay plates, followed by incubation for 6 h at 37° C., 5% CO2. Subsequently, cells were fixed (4% PFA in PBS, 20 min at r.t.) and submitted to indirect ATF4 immunofluorescence staining (primary antibody rabbit anti ATF4, clone D4B8, Cell Signaling Technologies; secondary antibody Alexa Fluor 488 goat anti-rabbit IgG (H+L), Thermofisher Scientific). Nuclei were stained using Hoechst dye (Thermofisher Scientific), and plates were imaged on an Opera Phenix High Content imaging platform equipped with 405 nm and 488 nm excitation. Finally, images were analyzed using script based algorithms. The main readout HEK-ATF4 monitored the ATF4 signal ratio between nucleus and cytoplasm. Tunicamycin induced an increase in the overall ATF4 ratio signal, which was prevented by ISR modulating example compounds. In addition, HEK-CellCount readout was derived from counting the number of stained nuclei corresponding to healthy cells. This readout served as an internal toxicity control.

[3] = Thermodynamic (Equilibrium) solubility in selected buffer; type: physicochemical; conditions: aqueous buffer, thermodynamic from solid, Table 25
Method: Protocol—Thermodynamic (Equilibrium) Solubility in Selected Buffer
Example compounds were tested in the Thermodynamic (Equilibrium) solubility in selected buffer assay. The test compound, in powder form, was weighted into a 4 mL glass vial and a calculated volume of selected medium was added to reach the target concentration of the solubility test (1 mg/mL). The solution was then stirred overnight at r.t. protected from the light. The solution was filtered through a 0.45 μm PTFE membrane at ambient temperature. An aliquot of the resulting filtrate was quantified using UPLC-UV method described below against a reference solution of the test compound, 0.8 mg/mL in DMSO. Media compositions: Phosphate buffer 50 mM (pH=2.0) […] of NaH2PO4, H2O in 200 mL of ultrapurified water adjusted at pH 2 with phosphoric acid 85%; Acetate buffer 50 mM (pH=5.5) 820 mg of anhydrous sodium acetate in 200 mL of ultrapurified water adjusted at pH 5.5 with acetic acid 99.8%; Phosphate buffer 50 mM (pH=7.4) 40.5 mL of Na2HPO4 0.1 M solution+9.5 mL of NaH2PO4 0.1 M solution. Analytical conditions: UPLC-UV-MS analyses were performed with a Waters Acquity UPLC HClass-PDA-QDa system using a reverse phase Acquity BEH C18 column (2.1 mm×50 mm, 1.7 μm; temperature: 40° C.) and a gradient of 10-95% B (A=0.1% formic acid in H2O; B=0.05% formic acid in ACN) over 1.8 min then 100% B for 0.8 min, with an injection volume of 0.4 μL at flow rate of 0.65 mL/min. UV chromatograms were recorded at 220 nm, 254 nm and 290 nm using a photo diode array detector. Mass spectra were recorded in the 150 to 900 M/Z range at a sampling rate of 10 scans per sec using a QDa detector. Data were integrated using Empower®3 software. Data Analysis: Equilibrium solubility of the test compound in the selected medium was calculated through the ratio of the surface area of the UV chromatographic peak of the compound in the filtrate to the surface of the UV chromatographic peak of the compound in the reference solution.

T1 sequence (Q12809 whole entry): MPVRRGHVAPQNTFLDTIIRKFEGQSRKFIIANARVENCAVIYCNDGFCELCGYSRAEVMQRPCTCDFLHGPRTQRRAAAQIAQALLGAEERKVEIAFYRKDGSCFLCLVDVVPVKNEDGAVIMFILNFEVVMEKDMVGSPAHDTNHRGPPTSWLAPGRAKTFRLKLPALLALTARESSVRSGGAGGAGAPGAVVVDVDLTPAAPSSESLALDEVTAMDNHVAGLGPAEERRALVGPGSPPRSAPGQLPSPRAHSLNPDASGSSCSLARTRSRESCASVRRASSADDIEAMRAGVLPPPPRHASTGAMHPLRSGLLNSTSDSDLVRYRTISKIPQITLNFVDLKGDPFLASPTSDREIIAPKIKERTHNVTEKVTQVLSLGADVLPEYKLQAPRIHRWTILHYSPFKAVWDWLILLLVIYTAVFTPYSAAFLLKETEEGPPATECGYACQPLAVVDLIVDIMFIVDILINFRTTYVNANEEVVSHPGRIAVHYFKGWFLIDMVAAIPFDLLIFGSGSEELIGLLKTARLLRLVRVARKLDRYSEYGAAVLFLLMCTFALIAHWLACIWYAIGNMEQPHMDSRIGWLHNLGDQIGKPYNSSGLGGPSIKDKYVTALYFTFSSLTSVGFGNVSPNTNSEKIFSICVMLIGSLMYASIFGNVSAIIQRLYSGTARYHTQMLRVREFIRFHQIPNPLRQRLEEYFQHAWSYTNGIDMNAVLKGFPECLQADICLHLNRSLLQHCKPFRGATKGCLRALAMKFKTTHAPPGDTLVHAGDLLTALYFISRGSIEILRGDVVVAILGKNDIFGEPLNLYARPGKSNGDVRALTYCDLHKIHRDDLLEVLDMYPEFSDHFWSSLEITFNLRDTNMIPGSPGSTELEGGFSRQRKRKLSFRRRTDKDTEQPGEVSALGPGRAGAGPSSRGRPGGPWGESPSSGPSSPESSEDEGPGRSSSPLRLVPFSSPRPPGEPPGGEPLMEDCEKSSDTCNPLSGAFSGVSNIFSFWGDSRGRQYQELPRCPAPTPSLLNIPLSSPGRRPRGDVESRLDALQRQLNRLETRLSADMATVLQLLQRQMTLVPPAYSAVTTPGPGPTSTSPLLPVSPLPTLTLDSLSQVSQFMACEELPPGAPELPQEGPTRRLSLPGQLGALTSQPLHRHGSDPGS

| IC50 [2] | solubility ([3]; acetate buffer 50 mM, pH 5.5, read-out: Solubility (μg/mL) pH 5.5) | solubility ([3]; phosphate buffer 50 mM, pH 2.0, read-out: Solubility (μg/mL) pH 2.0) | solubility ([3]; phosphate buffer 50 mM, pH 7.4, read-out: Solubility (μg/mL) pH 7.4) | Compound | IC50 [1] |
| --- | --- | --- | --- | --- | --- |
| 2000 to 15000 nM | – | – | – | O=C(COc1ccc(Cl)c(F)c1)N[C@@H]1CC[C@H](c2nnc([C@H]3C[C@@H](OC(F)(F)F)C3)o2)NC1=O (racemic) [Example 38, rac-2-(4-chloro-3-fluorophenoxy)-N-[(3R,6R)-2-oxo-6-{5-[(1s,3s)-3-(trifluoromethoxy)cyclobutyl]-1,3,4-oxadiazol-2-yl}piperidin-3-yl]acetamide] | > 5000 nM |
| 500 to 2000 nM | – | – | – | O=C(COc1ccc(Cl)c(F)c1)N[C@H]1CC[C@H](c2nnc(OCCO[C@@H]3CC3(F)F)o2)NC1 (single isomer, unassigned) [Example 102] | 1000 to 5000 nM |
| 1 to 500 nM | – | – | – | O=C(COc1ccc(Cl)c(F)c1)N[C@H]1CC[C@H](c2nnc(OCCO[C@H]3CC3(F)F)o2)NC1 (single isomer, unassigned) [Example 103] | > 5000 nM |
| 500 to 2000 nM | – | – | – | O=C(COc1ccc(Cl)c(F)c1)N[C@H]1CC[C@H](c2nnc([C@H]3C[C@@H](OC4CC4)C3)o2)NC1 (single isomer, unassigned) [Example 105] | > 5000 nM |
| 2000 to 15000 nM | – | – | – | C[C@@H](Oc1ccc(Cl)cc1)C(=O)N[C@H]1CC[C@H](c2nnc(-c3ccc(C(F)(F)F)cc3)o2)NC1 (single isomer, unassigned) [Example 106] | 1000 to 5000 nM |
| 2000 to 15000 nM | – | – | – | O=C(COc1ccc(Cl)c(F)c1)N[C@H]1CC[C@H](c2nnc(-c3ccc(Cl)cc3)o2)NC1=O (single isomer, unassigned) [Example 108] | 1 to 1000 nM |
| 1 to 500 nM | – | – | – | O=C(COc1ccc(Cl)c(F)c1)N[C@@H]1CC[C@@H](c2nnc(-c3ccc(Cl)cc3)o2)NC1=O (single isomer, unassigned) [Example 109] | 1 to 1000 nM |
| 1 to 500 nM | – | – | – | O=C(COc1ccc(Cl)c(F)c1)N[C@H]1CC[C@H](c2nnc(-c3ccc(C(F)(F)F)cc3)o2)NC1 [Example 2, 2-(4-chloro-3-fluorophenoxy)-N-[(3S,6R)-6-{5-[4-(trifluoromethyl)phenyl]-1,3,4-oxadiazol-2-yl}piperidin-3-yl]acetamide] | 1 to 1000 nM |
| – | – | – | – | CC(Oc1ccc(Cl)cc1)C(=O)N[C@H]1CC[C@H](c2nnc(-c3ccc(C(F)(F)F)cc3)o2)NC1 (stereo partly drawn) [Example 4, 2-(4-chlorophenoxy)-N-[(3S,6R)-6-{5-[4-(trifluoromethyl)phenyl]-1,3,4-oxadiazol-2-yl}piperidin-3-yl]propanamide] | 1 to 1000 nM |
| 1 to 500 nM | – | – | – | O=C(COc1cnc(Cl)c(F)c1)N[C@H]1CC[C@H](c2nnc(-c3ccc(Cl)cc3)o2)NC1 [Example 7, 2-[(6-chloro-5-fluoropyridin-3-yl)oxy]-N-[(3S,6R)-6-[5-(4-chlorophenyl)-1,3,4-oxadiazol-2-yl]piperidin-3-yl]acetamide] | 1 to 1000 nM |
| 1 to 500 nM | – | – | – | O=C(COc1ccc(Cl)c(Cl)c1)N[C@H]1CC[C@H](c2nnc([C@H]3C[C@@H](OC(F)(F)F)C3)o2)NC1 [Example 9, 2-(3,4-dichlorophenoxy)-N-[(3S,6R)-6-{5-[(1s,3s)-3-(trifluoromethoxy)cyclobutyl]-1,3,4-oxadiazol-2-yl}piperidin-3-yl]acetamide] | 1000 to 5000 nM |
| 1 to 500 nM | – | – | – | O=C(COc1ccc(C(F)(F)F)c(Cl)c1)N[C@H]1CC[C@H](c2nnc([C@H]3C[C@@H](OC(F)(F)F)C3)o2)NC1 [Example 10, 2-[3-chloro-4-(trifluoromethyl)phenoxy]-N-[(3S,6R)-6-{5-[(1s,3s)-3-(trifluoromethoxy)cyclobutyl]-1,3,4-oxadiazol-2-yl}piperidin-3-yl]acetamide] | 1000 to 5000 nM |
| 1 to 500 nM | – | – | – | COc1cc(OCC(=O)N[C@H]2CC[C@H](c3nnc(OCCOC(F)(F)F)o3)NC2)ccc1C(F)(F)F [Example 15, 2-[3-methoxy-4-(trifluoromethyl)phenoxy]-N-[(3S,6R)-6-{5-[2-(trifluoromethoxy)ethoxy]-1,3,4-oxadiazol-2-yl}piperidin-3-yl]acetamide] | > 5000 nM |
| 500 to 2000 nM | – | – | – | N#Cc1cc(OCC(=O)N[C@H]2CC[C@H](c3nnc(OCCOC(F)(F)F)o3)NC2)ccc1Cl [Example 29, 2-(4-chloro-3-cyanophenoxy)-N-[(3S,6R)-6-{5-[2-(trifluoromethoxy)ethoxy]-1,3,4-oxadiazol-2-yl}piperidin-3-yl]acetamide] | > 5000 nM |
| 2000 to 15000 nM | – | – | – | O=C(COc1ccc(Cl)c(F)c1)N[C@@H]1CN[C@@H](c2nnc(-c3ccc(Cl)cc3)o2)C1 [Example 31, 2-(4-chloro-3-fluorophenoxy)-N-[(3S,5R)-5-[5-(4-chlorophenyl)-1,3,4-oxadiazol-2-yl]pyrrolidin-3-yl]acetamide] | 1 to 1000 nM |
| 1 to 500 nM | – | – | – | O=C(COc1ccc(Cl)c(F)c1)N[C@H]1CC[C@H](c2nnc(OCCC(F)(F)F)o2)NC1 [Example 33, 2-(4-chloro-3-fluorophenoxy)-N-[(3S,6R)-6-[5-(3,3,3-trifluoropropoxy)-1,3,4-oxadiazol-2-yl]piperidin-3-yl]acetamide] | 1000 to 5000 nM |
| 500 to 2000 nM | 4 µg/mL (≈ 8.52 µM) | 945 µg/mL (≈ 2010 µM) | 2 µg/mL (≈ 4.26 µM) | Cn1nc(-c2nnc([C@H]3CC[C@H](NC(=O)COc4ccc(Cl)c(F)c4)CN3)o2)cc1Cl [Example 51, N-[(3S,6R)-6-[5-(5-chloro-1-methyl-1H-pyrazol-3-yl)-1,3,4-oxadiazol-2-yl]piperidin-3-yl]-2-(4-chloro-3-fluorophenoxy)acetamide] | – |
